Experimental findings from patent US20250368959A1, “COMPOSITIONS AND METHODS FOR DIFFERENTIATING STEM CELLS INTO NK CELLS” (CRISPR THERAPEUTICS AG, priority 2022, published 2025) are described below.

Common to all, as to type: cell-based, human
Experiment [1] relates to iNK cell induction from HSPC. As to the kind of experiment: Design of Experiment (DoE) I and β-mercaptoethanol test, day 6 to day 20. Conditions: for direction of effect in DoE I: differentiation and cell number at day 20. The protocol:
A design of Experiment (DoE) study was performed to determine the concentrations of zinc sulfate, β-mercaptoethanol, human serum, and glucose that would provide the most differentiation and increased number of cells at differentiation day 20. These factors were selected based on known chemical/biological effects of them in affect general cell proliferation and differentiation. Potential positive/negative involvement of β-mercaptoethanol, zinc ion, human serum, and glucose in NK cell or lymphocyte cell proliferation, killer cell receptor function, and cytotoxicity have been previously reported. There were no known studies conducted on testing optimal range of these factors in NK cell induction from HSPC.
To determine the effects of β-mercaptoethanol on differentiation, CD45+ and CD56+ expression was measured in cells cultured in Stempro34 media, DMEM/F12 media with low zinc, low human serum, and no β-mercaptoethanol (bME), or DMEM/F12 media with low zinc, low human serum, and 50 μM β-mercaptoethanol.
A second DoE experiment (DoE II) was subsequently performed to further optimize the concentrations of zinc, β-mercaptoethanol, human serum albumin, and glucose.

For experiment [2], the system named is blood lineage markers, CD33. As to the kind of experiment: Effect of WNT-C59 in NK-MED-006 medium on iNK induction. As to conditions: 2 μM in NK-MED-006, AP2.0, day 20 cultures. The protocol: The effect of including WNT-C59 (2 μM) in NK-MED-006 medium during iNK induction using the AP2.0 protocol was examined. […] The addition of WNT-C59 increased proportion of cells expressing non-NK lineage markers.

The test system of the next experiment is CD56^+ cells. In words: CD45/CD56 expression on day 28 after iPSC-HSPC differentiation optimization. The protocol:
For iPSC-HSPC differentiation optimization, CD45/CD56 expression on day 28 was measured (FIG. 10). The HSPC cells on day 6 were further differentiated to iNK in the StemPro-34-based differentiation media Table 12) in the presence of IL7, IL15, SCF. Flt3lFlt3l, (IL3 was added for days 6-14 only). […] However, it was not an optimal condition as the single cells production and expansion was lower than in conditions in the presence of Activin A molecule (data not shown). Due to low CD56^+ cells formation on day 28, the HSPC to iNK differentiation conditions was optimized.

The test system of the next experiment is CD45^+CD56^+ cells. In words: Effect of CHIR-99021 concentration in NK-MED-005 medium on iNK induction. As to conditions: 2.5, 3.5 or 4.5 μM in NK-MED-005c, AP2.0, day 20. The protocol:
To determine the optimal concentration of CHIR-99021, different concentrations (2.5 μM, 3.5 μM or 4.5 μM) were added to the NK-MED-005c medium (Table 30) to test their effect on iNK induction. Differentiation proceeded according to Protocol 2 (AP2.0) as described in Example 11. Cells were collected and analyzed using flow cytometry to detect CD45^+CD56^+ cells at differentiation day 20.

Another experiment deals with CD45^+/CD56^+ cells. In words: Stage II base media comparison (Stempro34 vs DMEM/F12 and others), Day 21 single cells. The protocol:
This Example investigates the use of various alternative base media that can be used for Stage II differentiation. […] The HSPC to iNK differentiation from day 6 further on was done in StemPro-34-based media (Table 12). […] In this Example, the […] until day 6 as described in Example 2 (i.e., steps 1-5). Each media was supplemented with 20 ng/mL IL7, 20 ng/mL IL15, 20 ng/mL SCF, 20 ng/mL Flt3lFlt3l and 5 ng/mL of IL-3 for days 6-14 and 20 ng/mL IL7, 20 ng/mL IL15, 20 ng/mL SCF, 20 ng/mL Flt3lFlt3l for days 14-21 of differentiation.
Day 21 single cells were profiled for CD45^+/CD56^+, CD56^+/NKG2D^+, CD56^+/CD94^+, and CD56^+/CD16^+ expression (FIG. 12). […] The DMEM/F12 2:1 basal media was chosen due to its price and higher availability for scale up production.

Take `O=S(=O)([O-])[O-].[Zn+2]` [Zinc sulfate]: in experiment [1], the “direction of effect in DoE I” value is recorded as “positive effect”.
With `Cc1cc(-c2ccc(CC(=O)Nc3ccc(-c4cccnc4)cc3)cc2)ccn1` [WNT-C59], in experiment [2], the “proportion of cells expressing non-NK lineage markers” value is “increased” and the “proportion of iNK that expressed the myeloid progenitor marker CD33” value was “altered”.
In the case of `Cc1cnc(-c2cnc(NCCNc3ccc(C#N)cn3)nc2-c2ccc(Cl)cc2Cl)[nH]1` [CHIR-99021, 6-[[2-[[4-(2,4-Dichlorophenyl)-5-(5-methyl-1H-imidazol-2-yl)-2-pyrimidinyl]amino]ethyl]amino]-3-pyridinecarbonitrile], the “single cells production and expansion” value in the experiment with CD56^+ cells (CHIR-99021 alone versus conditions with Activin A, data not shown) was “lower”. Also, the “CD56^+ percentage, rank among conditions” value in the experiment on CD56^+ cells (day 28, StemPro-34-based media, condition #5) is given as “highest CD56^+ percentage”. Moreover, the “amount giving the highest proportion of CD45^+CD56^+ cells” value with CD45^+CD56^+ cells is listed as “moderate amount”.
`OCCS` [β-mercaptoethanol]: the “effect on iNK cell induction (CD45+, CD56+ expression)” value in experiment [1] (50 μM in DMEM/F12 with low zinc, low human serum) is recorded as “negative effect”. The “direction of effect in DoE I” value in experiment [1] is given as “negative effect”. Moreover, the “CD45^+/CD56^+ cells” value in the experiment with CD45^+/CD56^+ cells (StemPro34, bME 55 μM, 1 μM, 0 μM (samples #1, #2, #3), day 21) is listed as 60% to 90%. In the experiment on CD45^+/CD56^+ cells (StemPro-based media, day 6 to day 21), the “effect on iNK differentiation” value was “prevented iNK differentiation”.
